Experimental data reported in ChEMBL document CHEMBL2040848, “Synthesis and bioactivity evaluation of rhodanine derivatives as potential anti-bacterial agents” (2012).
Converted amounts (≈) assume the structure as drawn.

Columns and labels:
Format in all cases: functional
Staphylococcus aureus [1] = assay: Antibacterial activity against methicillin-resistant Staphylococcus aureus CCARM 3167 after 24 hrs by two-fold serial dilution method; conditions: CCARM 3167, 24 h
Staphylococcus aureus [2] = assay: Antibacterial activity against quinolone-resistant Staphylococcus aureus CCARM 3519 after 24 hrs by two-fold serial dilution method; conditions: CCARM 3519, 24 h
Staphylococcus aureus [3] = assay: Antibacterial activity against Staphylococcus aureus KCTC 503 after 24 hrs by two-fold serial dilution method; conditions: KCTC 503, 24 h
Staphylococcus aureus [4] = assay: Antibacterial activity against Staphylococcus aureus KCTC 209 after 24 hrs by two-fold serial dilution method; conditions: KCTC 209, 24 h
Escherichia coli = assay: Antibacterial activity against Escherichia coli 1356 after 24 hrs by two-fold serial dilution method; conditions: Escherichia coli, 1356, 24 h
Staphylococcus aureus [5] = assay: Antibacterial activity against quinolone-resistant Staphylococcus aureus CCARM 3505 after 24 hrs by two-fold serial dilution method; conditions: CCARM 3505, 24 h
Staphylococcus aureus [6] = assay: Antibacterial activity against Staphylococcus aureus KCTC 4220 after 24 hrs by two-fold serial dilution method; conditions: KCTC 4220, 24 h
Staphylococcus aureus [7] = assay: Antibacterial activity against methicillin-resistant Staphylococcus aureus CCARM 3506 after 24 hrs by two-fold serial dilution method; conditions: CCARM 3506, 24 h

Row | Structure (SMILES) | MIC (Staphylococcus aureus [1]) [mg/L] | MIC (Staphylococcus aureus [2]) [mg/L] | MIC (Staphylococcus aureus [3]) [mg/L] | MIC (Staphylococcus aureus [4]) [mg/L] | MIC (Escherichia coli) [mg/L] | MIC (Staphylococcus aureus [5]) [mg/L] | MIC (Staphylococcus aureus [6]) [mg/L] | MIC (Staphylococcus aureus [7]) [mg/L]
1 | O=C(COc1ccc(/C=C2\SC(=S)N([C@@H](Cc3ccc(O)cc3)C(=O)O)C2=O)cc1)c1ccc(Cl)cc1Cl | 8 (≈ 13.6 µM) | 8 (≈ 13.6 µM) | 4 (≈ 6.8 µM) | 4 (≈ 6.8 µM) | > 64 | 8 (≈ 13.6 µM) | 8 (≈ 13.6 µM) | 8 (≈ 13.6 µM)
2 | COc1ccccc1C(=O)COc1ccc(/C=C2\SC(=S)N([C@@H](Cc3ccc(O)cc3)C(=O)O)C2=O)cc1 | 8 (≈ 14.6 µM) | 8 (≈ 14.6 µM) | 8 (≈ 14.6 µM) | 8 (≈ 14.6 µM) | > 64 | 8 (≈ 14.6 µM) | 32 (≈ 58.2 µM) | 8 (≈ 14.6 µM)
3 | O=C(COc1ccc(/C=C2\SC(=S)N([C@@H](Cc3ccc(O)cc3)C(=O)O)C2=O)cc1)c1ccc(Cl)cc1 | 8 (≈ 14.4 µM) | 16 (≈ 28.9 µM) | 8 (≈ 14.4 µM) | 8 (≈ 14.4 µM) | > 64 | 8 (≈ 14.4 µM) | 16 (≈ 28.9 µM) | 16 (≈ 28.9 µM)
4 | O=C(COc1ccc(/C=C2\SC(=S)N([C@@H](Cc3ccc(O)cc3)C(=O)O)C2=O)cc1)c1ccccc1Cl | 8 (≈ 14.4 µM) | 16 (≈ 28.9 µM) | 8 (≈ 14.4 µM) | 16 (≈ 28.9 µM) | > 64 | 8 (≈ 14.4 µM) | 16 (≈ 28.9 µM) | 16 (≈ 28.9 µM)
5 | O=C(COc1ccc(/C=C2\SC(=S)N([C@@H](Cc3ccc(O)cc3)C(=O)O)C2=O)cc1)c1cccc(Br)c1 | 8 (≈ 13.4 µM) | 8 (≈ 13.4 µM) | 8 (≈ 13.4 µM) | 8 (≈ 13.4 µM) | > 64 | 8 (≈ 13.4 µM) | 8 (≈ 13.4 µM) | 8 (≈ 13.4 µM)
6 | Cc1ccc(C(=O)COc2ccc(/C=C3\SC(=S)N([C@@H](Cc4c[nH]c5ccccc45)C(=O)O)C3=O)cc2)cc1 | 4 (≈ 7.19 µM) | 8 (≈ 14.4 µM) | 4 (≈ 7.19 µM) | 4 (≈ 7.19 µM) | > 64 | 4 (≈ 7.19 µM) | 8 (≈ 14.4 µM) | 8 (≈ 14.4 µM)
7 | Cc1onc(-c2ccccc2)c1C(=O)N[C@@H]1C(=O)N2[C@@H]1SC(C)(C)[C@@H]2C(=O)O [OXACILLIN] | > 64 | 1 (≈ 2.49 µM) | 1 (≈ 2.49 µM) | 1 (≈ 2.49 µM) | > 64 | 1 (≈ 2.49 µM) | 1 (≈ 2.49 µM) | > 64
8 | O=C(COc1ccc(/C=C2\SC(=S)N([C@@H](Cc3ccccc3)C(=O)O)C2=O)cc1)c1ccccc1 | 8 (≈ 15.9 µM) | 4 (≈ 7.94 µM) | 8 (≈ 15.9 µM) | 4 (≈ 7.94 µM) | > 64 | 8 (≈ 15.9 µM) | 8 (≈ 15.9 µM) | 4 (≈ 7.94 µM)
9 | O=C(COc1ccc(/C=C2\SC(=S)N([C@@H](Cc3ccccc3)C(=O)O)C2=O)cc1)c1ccc(Cl)cc1Cl | 8 (≈ 14 µM) | 8 (≈ 14 µM) | 8 (≈ 14 µM) | 8 (≈ 14 µM) | > 64 | 8 (≈ 14 µM) | 8 (≈ 14 µM) | 8 (≈ 14 µM)
10 | O=C(COc1ccc(/C=C2\SC(=S)N([C@@H](Cc3c[nH]c4ccccc34)C(=O)O)C2=O)cc1)c1ccc(F)cc1 | 4 (≈ 7.13 µM) | 4 (≈ 7.13 µM) | 4 (≈ 7.13 µM) | 4 (≈ 7.13 µM) | > 64 | 4 (≈ 7.13 µM) | 4 (≈ 7.13 µM) | 4 (≈ 7.13 µM)
11 | O=C(COc1ccc(/C=C2\SC(=S)N([C@@H](Cc3ccc(O)cc3)C(=O)O)C2=O)cc1)c1cccc(Cl)c1 | 8 (≈ 14.4 µM) | 8 (≈ 14.4 µM) | 8 (≈ 14.4 µM) | 8 (≈ 14.4 µM) | > 64 | 8 (≈ 14.4 µM) | 8 (≈ 14.4 µM) | 8 (≈ 14.4 µM)
12 | O=C(COc1ccc(/C=C2\SC(=S)N([C@@H](Cc3ccccc3)C(=O)O)C2=O)cc1)c1ccccc1Cl | 4 (≈ 7.43 µM) | 4 (≈ 7.43 µM) | 8 (≈ 14.9 µM) | 8 (≈ 14.9 µM) | > 64 | 4 (≈ 7.43 µM) | 8 (≈ 14.9 µM) | 4 (≈ 7.43 µM)
13 | COc1ccccc1C(=O)COc1ccc(/C=C2\SC(=S)N([C@@H](Cc3ccccc3)C(=O)O)C2=O)cc1 | 4 (≈ 7.5 µM) | 4 (≈ 7.5 µM) | 4 (≈ 7.5 µM) | 4 (≈ 7.5 µM) | > 64 | 4 (≈ 7.5 µM) | 4 (≈ 7.5 µM) | 4 (≈ 7.5 µM)
14 | O=C(COc1ccc(/C=C2\SC(=S)N([C@@H](Cc3ccccc3)C(=O)O)C2=O)cc1)c1ccc(Br)cc1 | 4 (≈ 6.87 µM) | 8 (≈ 13.7 µM) | 8 (≈ 13.7 µM) | 8 (≈ 13.7 µM) | > 64 | 4 (≈ 6.87 µM) | 8 (≈ 13.7 µM) | 8 (≈ 13.7 µM)
15 | COc1cccc(C(=O)COc2ccc(/C=C3\SC(=S)N([C@@H](Cc4ccccc4)C(=O)O)C3=O)cc2)c1 | 8 (≈ 15 µM) | 8 (≈ 15 µM) | 8 (≈ 15 µM) | 8 (≈ 15 µM) | > 64 | 8 (≈ 15 µM) | 8 (≈ 15 µM) | 8 (≈ 15 µM)
16 | O=C(COc1ccc(/C=C2\SC(=S)N([C@@H](Cc3ccccc3)C(=O)O)C2=O)cc1)c1ccccc1F | 4 (≈ 7.67 µM) | 4 (≈ 7.67 µM) | 8 (≈ 15.3 µM) | 4 (≈ 7.67 µM) | > 64 | 4 (≈ 7.67 µM) | 8 (≈ 15.3 µM) | 4 (≈ 7.67 µM)

Row | Structure (SMILES) | MIC (Staphylococcus aureus [1]) [mg/L] | MIC (Staphylococcus aureus [2]) [mg/L] | MIC (Staphylococcus aureus [3]) [mg/L] | MIC (Staphylococcus aureus [4]) [mg/L] | MIC (Escherichia coli) [mg/L] | MIC (Staphylococcus aureus [5]) [mg/L] | MIC (Staphylococcus aureus [6]) [mg/L] | MIC (Staphylococcus aureus [7]) [mg/L]
17 | O=C(COc1ccc(/C=C2\SC(=S)N([C@@H](Cc3c[nH]c4ccccc34)C(=O)O)C2=O)cc1)c1ccccc1 | 8 (≈ 14.7 µM) | 8 (≈ 14.7 µM) | 8 (≈ 14.7 µM) | 8 (≈ 14.7 µM) | > 64 | 8 (≈ 14.7 µM) | 8 (≈ 14.7 µM) | 8 (≈ 14.7 µM)
18 | Cc1ccc(C(=O)COc2ccc(/C=C3\SC(=S)N([C@@H](Cc4ccc(O)cc4)C(=O)O)C3=O)cc2)cc1 | 16 (≈ 30 µM) | 16 (≈ 30 µM) | 8 (≈ 15 µM) | 4 (≈ 7.5 µM) | > 64 | 16 (≈ 30 µM) | 32 (≈ 60 µM) | 16 (≈ 30 µM)
19 | O=C(COc1ccc(/C=C2\SC(=S)N([C@@H](Cc3ccc(O)cc3)C(=O)O)C2=O)cc1)c1ccc(Br)cc1 | 8 (≈ 13.4 µM) | 8 (≈ 13.4 µM) | 4 (≈ 6.68 µM) | 4 (≈ 6.68 µM) | > 64 | 8 (≈ 13.4 µM) | 8 (≈ 13.4 µM) | 8 (≈ 13.4 µM)
20 | O=C(O)CN1C(=O)C(=Cc2ccc(/C=C/C(=O)c3ccc(Cl)cc3Cl)cc2)SC1=S | 2 (≈ 4.18 µM) | 2 (≈ 4.18 µM) | 2 (≈ 4.18 µM) | 2 (≈ 4.18 µM) | > 64 | 2 (≈ 4.18 µM) | 2 (≈ 4.18 µM) | 2 (≈ 4.18 µM)
21 | O=C(COc1ccc(/C=C2\SC(=S)N([C@@H](Cc3ccccc3)C(=O)O)C2=O)cc1)c1cccc(Cl)c1 | 4 (≈ 7.43 µM) | 4 (≈ 7.43 µM) | 4 (≈ 7.43 µM) | 4 (≈ 7.43 µM) | > 64 | 4 (≈ 7.43 µM) | 8 (≈ 14.9 µM) | 4 (≈ 7.43 µM)
22 | O=C(COc1ccc(/C=C2\SC(=S)N([C@@H](Cc3ccc(O)cc3)C(=O)O)C2=O)cc1)c1ccccc1 | 32 (≈ 61.6 µM) | 32 (≈ 61.6 µM) | 32 (≈ 61.6 µM) | 32 (≈ 61.6 µM) | > 64 | 32 (≈ 61.6 µM) | 32 (≈ 61.6 µM) | 32 (≈ 61.6 µM)
23 | COc1ccccc1C(=O)COc1ccc(/C=C2\SC(=S)N([C@@H](Cc3c[nH]c4ccccc34)C(=O)O)C2=O)cc1 | 8 (≈ 14 µM) | 8 (≈ 14 µM) | 8 (≈ 14 µM) | 8 (≈ 14 µM) | > 64 | 8 (≈ 14 µM) | 8 (≈ 14 µM) | 8 (≈ 14 µM)
24 | O=C(COc1ccc(/C=C2\SC(=S)N([C@@H](Cc3c[nH]c4ccccc34)C(=O)O)C2=O)cc1)c1ccccc1Cl | 8 (≈ 13.9 µM) | 8 (≈ 13.9 µM) | 4 (≈ 6.93 µM) | 4 (≈ 6.93 µM) | > 64 | 8 (≈ 13.9 µM) | 8 (≈ 13.9 µM) | 8 (≈ 13.9 µM)
25 | O=C(COc1ccc(/C=C2\SC(=S)N([C@@H](Cc3c[nH]c4ccccc34)C(=O)O)C2=O)cc1)c1ccc(Br)cc1 | 8 (≈ 12.9 µM) | 8 (≈ 12.9 µM) | 4 (≈ 6.44 µM) | 4 (≈ 6.44 µM) | > 64 | 8 (≈ 12.9 µM) | 8 (≈ 12.9 µM) | 8 (≈ 12.9 µM)
26 | O=C(COc1ccc(/C=C2\SC(=S)N([C@@H](Cc3ccccc3)C(=O)O)C2=O)cc1)c1cccc(Br)c1 | 4 (≈ 6.87 µM) | 4 (≈ 6.87 µM) | 4 (≈ 6.87 µM) | 4 (≈ 6.87 µM) | > 64 | 4 (≈ 6.87 µM) | 4 (≈ 6.87 µM) | 4 (≈ 6.87 µM)
27 | O=C(COc1ccc(/C=C2\SC(=S)N([C@@H](Cc3c[nH]c4ccccc34)C(=O)O)C2=O)cc1)c1ccc(Cl)cc1Cl | 4 (≈ 6.54 µM) | 8 (≈ 13.1 µM) | 8 (≈ 13.1 µM) | 4 (≈ 6.54 µM) | > 64 | 4 (≈ 6.54 µM) | 8 (≈ 13.1 µM) | 8 (≈ 13.1 µM)
28 | COc1cccc(C(=O)COc2ccc(/C=C3\SC(=S)N([C@@H](Cc4c[nH]c5ccccc45)C(=O)O)C3=O)cc2)c1 | 8 (≈ 14 µM) | 8 (≈ 14 µM) | 8 (≈ 14 µM) | 8 (≈ 14 µM) | > 64 | 8 (≈ 14 µM) | 8 (≈ 14 µM) | 8 (≈ 14 µM)
29 | CCn1cc(C(=O)O)c(=O)c2cc(F)c(N3CCNCC3)cc21 [NORFLOXACIN] | 8 (≈ 25.1 µM) | > 64 | 2 (≈ 6.26 µM) | 2 (≈ 6.26 µM) | 16 (≈ 50.1 µM) | > 64 | 2 (≈ 6.26 µM) | 4 (≈ 12.5 µM)
30 | O=C(COc1ccc(/C=C2\SC(=S)N([C@@H](Cc3ccc(O)cc3)C(=O)O)C2=O)cc1)c1ccccc1F | 16 (≈ 29.8 µM) | 16 (≈ 29.8 µM) | 16 (≈ 29.8 µM) | 8 (≈ 14.9 µM) | > 64 | 16 (≈ 29.8 µM) | 32 (≈ 59.5 µM) | 16 (≈ 29.8 µM)
31 | O=C(COc1ccc(/C=C2\SC(=S)N([C@@H](Cc3ccc(O)cc3)C(=O)O)C2=O)cc1)c1ccc(F)cc1 | 8 (≈ 14.9 µM) | 8 (≈ 14.9 µM) | 8 (≈ 14.9 µM) | 8 (≈ 14.9 µM) | > 64 | 8 (≈ 14.9 µM) | 8 (≈ 14.9 µM) | 8 (≈ 14.9 µM)
